{
  "source": "patent US11524021B2",
  "about": "“Use of ginsenoside M1 for manufacturing medicament for treating oral cancer” (priority 2018, dated 2022)",
  "format_in_all_cases": "cell-based",
  "key": {"[1]": {"system": "human oral cancer cells OECM-1", "experiment": "Cell cycle distribution, PI staining by flow cytometry", "conditions": "50 μM, 24 h", "method": "(§1) Human oral cancer cell line OECM-1 cells were incubated for 24 h with ginsenoside M1 (10˜20 μg/ml), 50 μM cistaplatin (CDDP) or vehicle (0.1% DMSO). (FIG. 3A) The apoptotic DNA breaks was assayed by terminal deoxynucleotidyl transferase dUTP nick end labeling (TUNEL) assay using flow cytometry. (FIG. 3B) The cell cycle distribution was determined by PI staining using flow cytometry. (FIG. 3C) The apoptosis level was measured by PI/Annexin V double staining assay using flow cytometry. (FIG. 3D) The activation levels of caspase-9 and caspase-3 were measured by detecting the degradation of pro-caspase-9 and pro-caspase-3 using Western blotting. […] (One-way ANOVA with Dunnett's multiple comparisons test).\n(§2) To gain further insight into the mode of action of ginsenoside M1, three assays targeting hallmarks of apoptosis, namely (1) the apoptotic DNA breaks assayed by terminal deoxynucleotidyl transferase dUTP nick end labeling (TUNEL) assay, (2) the cell cycle assayed by flow cytometry after propidium iodide (PI)-staining nuclei, (3) the PI/Annexin V double staining assay, and (4) caspase activation were performed. Plate 1×10^6 human oral cancer cells OECM-1 per 6-cm dish in 2 ml of culture medium and were grown overnight at 37° C. in a 5% CO2 incubator. The cells were incubated for 24 h with ginsenoside M1 (10˜20 μg/ml), 50 μM cistaplatin (CDDP) or vehicle. Each group contains a final DMSO concentration of 0.1%. Thereafter, three assays were performed. […] The cells in sub-G1 phase increased after treatment with ginsenoside M1 and CDDP. (FIG. 3B). […] The data were expressed as mean±SD; n=3. ** and *** indicate a significant difference at the level of p<0.01 and p<0.001, respectively, compared to vehicle-control cells. (One-way ANOVA with Dunnett's multiple comparisons test)."}, "[2]": {"system": "human oral cancer cells OECM-1", "experiment": "PI/Annexin V double staining assay by flow cytometry", "conditions": "50 μM, 24 h", "method": "as §1, §2"}, "[3]": {"system": "human oral cancer cells OECM-1", "experiment": "Apoptotic DNA breaks, TUNEL assay by flow cytometry", "conditions": "50 μM, 24 h", "method": "as §1, §2"}, "[4]": {"system": "human oral cancer cells SAS", "experiment": "Viability of human oral cancer SAS cells, Trypan blue exclusion", "conditions": "5˜20 μg/ml, 24 h", "method": "(§3) Human oral cancer cell line SAS cells (FIG. 1A) or OECM-1 cells (FIG. 1B) were incubated for 24 h with ginsenoside M1 (5˜20 μg/ml), ginsenoside Rh2 (5˜20 μg/ml) or vehicle (0.1% DMSO). The live cell numbers were counted by Trypan blue exclusion method. The data were expressed as mean±SD; n=3. *, ** and *** indicate a significant difference at the level of p<0.05, p<0.01 and p<0.001, respectively, compared to vehicle-control cells. (One-way ANOVA with Dunnett's multiple comparisons test).\n(§4) Plate 5×10^5 human oral cancer cells SAS per 6-cm dish in 2 ml of culture medium and were grown overnight at 37° C. in a 5% CO2 incubator. The cells were incubated for 24 h with ginsenoside M1 (5˜20 μg/ml), ginsenoside Rh2 (5˜20 μg/ml) or vehicle. Each group contains a final DMSO concentration of 0.1%. Thereafter, the cell numbers were counted by Trypan blue exclusion method. […] The data were expressed as mean±SD; n=3. *, ** and *** indicate a significant difference at the level of p<0.05, p<0.01 and p<0.001, respectively, compared to vehicle-control cells. (One-way ANOVA with Dunnett's multiple comparisons test)."}, "[5]": {"system": "normal human gingival epithelioid cell line SG", "experiment": "Toxicity to normal human gingival epithelioid SG cells, Trypan blue exclusion", "conditions": "20 μg/ml, 24 h", "method": "as §3, with “normal human gingival epithelioid” for “oral cancer”, “SG” for “SAS”, “cells” for “cells (FIG. 1A) or OECM-1 cells (FIG. 1B)”, “n=3.” for “n=3. *,”, “of” for “of p<0.05,”\nas §4, with “5×10^5 normal” for “5×10^5”, “gingival epithelioid cell line SG” for “oral cancer cells SAS”, “n=3.” for “n=3. *,”, “of” for “of p<0.05,”"}, "[6]": {"system": "human oral cancer OECM-1 cells", "experiment": "Viability of human oral cancer OECM-1 cells, Trypan blue exclusion", "conditions": "5˜20 μg/ml, 24 h", "method": "as §3, §4"}},
  "data": [
    {"smiles": "N.N.[Cl][Pt][Cl]", "note": "[CDDP, cistaplatin, reference compound]", "values": [
      {"measurement": "cells in sub-G1 phase", "setting": "[1]", "value": "increased"},
      {"measurement": "cells in G1 phase", "setting": "[1]; vs control cells", "value": "increased"},
      {"measurement": "percentage of cells in S and G2/M phase", "setting": "[1]; vs control cells", "value": "decreasing"},
      {"measurement": "percentage of OECM-1 cells with PI/Annexin V double positive staining", "setting": "[2]", "value": "significantly increased"},
      {"measurement": "apoptotic DNA breaks in OECM-1 cells", "setting": "[3]", "value": "significantly induced"}
    ]},
    {"smiles": "CC(C)=CCC[C@](C)(O)[C@H]1CC[C@]2(C)[C@@H]1[C@H](O)C[C@@H]1[C@@]3(C)CC[C@H](O[C@@H]4O[C@H](CO)[C@@H](O)[C@H](O)[C@H]4O)C(C)(C)[C@@H]3CC[C@]12C", "note": "[ginsenoside Rh2, reference compound]", "values": [
      {"measurement": "cell numbers of human oral cancer SAS cells", "setting": "[4]", "value": "dose-dependently inhibited"},
      {"measurement": "toxicity to SG cells", "setting": "[5]", "value": "completely killed the SG cells"},
      {"measurement": "cell numbers of human oral cancer OECM-1 cells", "setting": "[6]", "value": "dose-dependently inhibited"}
    ]}
  ]
}
